# Literature values in US20030083520A1, “Process for preparing bicyclic amino acid” (Pfizer Inc., priority 2001, published 2003).
# Test system: α2δ subunit derived from porcine brain tissue
# Details: [3H]gabapentin radioligand
row,Compound,α2δ binding affinity [µM]
1,"NCC1(CC(=O)O)C[C@H]2CC[C@@H]2C1 (racemic) [(+/−)-(1α,5β)(3-Aminomethyl-bicyclo[3.2.0]hept-3-yl)-acetic acid]",2.86
2,"NC[C@]1(CC(=O)O)C[C@H]2CC[C@H]2C1 [(1α,3α,5α)(3-aminomethyl-bicyclo[3.2.0]hept-3-yl)-acetic acid]",0.038
3,"NC[C@@]1(CC(=O)O)C[C@H]2CC[C@H]2C1 [(1α,3β,5α)(3-Aminomethyl-bicyclo[3.2.0]hept-3-yl)-acetic acid]",0.332
